In patent publication EP4741374A1, “TREPROSTINIL DERIVATIVE, AND PREPARATION METHOD THEREFOR AND USE THEREOF” (CF PharmTech HongKong Limited, priority 2023, dated 2025):

How the values were obtained:
[1] = Stability of treprostinil derivative in ethanol/water solutions of different pH (light irradiation, 40°C, 60°C); assay type: physicochemical
Procedure: 1 mol/L hydrochloric acid and/or sodium hydroxide aqueous solution and distilled water were used to prepare 100 mL solutions with different pH values (3.0, 4.0, 5.0, 6.0, 7.0, 8.0, 9.0 and 10.0) for later use. 640 mg of compound Ia-2 was taken and added with 640 mL of 90% ethanol as a diluent to completely dissolve the compound, and then prepared into 1 mg/mL sample solution 1 for later use. • (1) […] of 90% ethanol, the sample solution 1 and 80 mL of each aqueous solution with different pH value (3.0, 5.0, 7.0 or 9.0) were taken and mixed evenly (ethanol: water =1.5: 1), and filled 2 mL per vial to obtain total 90 vials of samples, and the samples were divided into three groups equally for stability examination under the condition of light-irradiation, high-temperature of 40°C or high-temperature of 60°C. The samples of the two high-temperature stability examination groups were packaged in aluminum foil bags, 10 vials per bag; and the samples of the light-irradiation stability examination group were packaged in transparent bags, 10 vials per bag. • (2) 80 mL of 90% ethanol, the sample solution 1 and 80 mL of each aqueous solution with different pH value (4.0, 6.0, 8.0 or 10.0) were taken and mixed evenly (ethanol: water =2: 1), and then filled, grouped and packaged as above.
After the above samples were placed under conditions as described in Table-1, 15 vials of samples were taken from each group at each detection time point for detection for each pH value solution, comprising: the content of compound, the content of related substances (impurities) and liquid properties (whether there was turbidity, stratification or color change). The content of compound and the content of related substances were calculated by calculating the percentage of area occupied by the main ingredient through an area normalization method. Table-1 Placement conditions for stability examination of compound Ia-2

SD rats = assay: U46619-induced rat acute pulmonary arterial pressure rise model, airway nebulized administration (RVSP); assay type: in vivo
Excerpt: U46619 was a stable analogue of thromboxane A2 (TXA2), which activated the downstream IP3 signal by binding to the thromboxane A2 receptor to promote vasoconstriction, platelet aggregation and the like. Influences of compound C16-TR and equimolar compounds Ia-1, Ia-2, Ia-3, R-11 and R-12 at different time points after airway nebulized administration on pulmonary hypertension of rats were studied by using the U46619-induced rat pulmonary arterial pressure rise mode, which were compared with that of equimolar TRE after airway nebulized administration.
Preparation of test sample: a required amount of compound TRE was taken and added into a sterile EP tube, and each tube was added with an appropriate amount of DMSO for dissolution to prepare a stock solution (100 mg/mL). Compounds C16-TR, la-1, la-2, Ia-3, R-11 and R-12 were added with appropriate amounts of DMSO and dissolved in the original bottles to prepare stock solutions (100 mg/mL), and then the stock solutions were transferred to sterile EP tubes. Each above stock solution was hermetically stored in the dark in a refrigerator at 4°C. When the stock solution was tested, an appropriate amount of stock solution was taken and added into a new sterile EP tube, and diluted with DMSO and 1×PBS to a target concentration (working solution) wherein the solvent was 3% DMSO/1×PBS.
Preparation of modeling agent: 900 µL of methyl acetate was added into an original bottle of U46619 and mixed evenly to prepare 1 mg/mL(1 µg/µL) stock solution, which was divided into 10 µL (1 µg/µL) per sterile EP tube and stored in a refrigerator at -20°C. On the day of modeling, the stock solution was taken out and balanced at room temperature and constant temperature, and each tube was added with an appropriate amount of 0.9% sodium chloride solution (sterile) to be diluted 20-fold, so as to prepare a working solution with a concentration of 50 ng/µL.
Airway nebulized administration dosages of compound TRE and the test compounds were equimolar quantities calculated based on TRE. The dosage of compound TRE group (n=3) was 13.3 µg/kg, the dosage of compound C16-TR group (n=5) was 20.9 µg/kg, the dosage of compound Ia-1 group (n=3) was 21.2 µg/kg, the dosage of compound Ia-2 group (n=6) was 22.1 µg/kg, the dosage of compound Ia-3 group (n=6) was 23.1 µg/kg, the dosage of compound R-11 group (n=3) was 21.9 µg/kg, and the dosage of compound R-12 group (n=3) was 21.7 µg/kg. There were also a model control group (n=1) and a solvent control group (n=3).
The SD rats were injected with U46619 (25 µg /kg) through the left jugular vein at different time points after airway nebulized administration, the peak value of RVSP rise after injection with U46619 was observed and recorded, and the inhibition percentage on the RVSP rise was calculated by comparing with the basic RVSP value. The rats in the model control group were administered with U46619 by intravenous injection immediately after successful catheterization and measurement of the basic RVSP. RVSP of all animals were detected by right cardiac catheterization, and respiratory conditions of the animals were observed generally. Table-2 Time points of administrating U46619 in various groups

Q: Which content of compound ([1]; each group (pH 3-10), placement at 40°C for 30 days) does the source give for `CCCCC[C@H](O)CC[C@@H]1[C@H]2Cc3cccc(OCC(=O)OCCCCCCCCOCCCCc4ccccc4)c3C[C@H]2C[C@H]1O` [Compound Ia-2] here?
A: higher than 80%

Q: And the content of compound ([1]; ethanol: water 1.5:1 or 2.0:1, different pH values, after placement for 10 days)?
A: higher than 95%

Q: And the ethyl ester impurities ([1]; extreme conditions: pH=3, 60°C for 30 days, pH=10, 40°C for 30 days or 60°C more than 10 days)?
A: 8.0~9.0%

Q: What about the ethyl ester impurities ([1]; high-temperature placement, other conditions) of the same compound?
A: less than 4.0%

Q: And the ethyl ester impurities ([1]; light irradiation, each group, after 10 days)?
A: less than 1.80%

Q: And the content of compound ([1]; solution with pH=5.0~9.0, placement at 60°C for 30 days)?
A: higher than 90%

Q: What about the “antihypertensive effect and duration, overall” value (SD rats; 1 to 48 hours after airway nebulized administration, equimolar doses) of the same compound?
A: stronger antihypertensive effects than C16-TR and longer durations

Q: What about the antihypertensive effect (SD rats; 24 hours after airway nebulized administration, equimolar to 13.3 µg/kg TRE) of the same compound?
A: obvious antihypertensive effects

Q: What about the antihypertensive effect (SD rats; 48 hours after airway nebulized administration) of the same compound?
A: absence of an antihypertensive effect
